Data published in patent publication US11963995B2, “Methods comprising desmopressin” (Ferring B.V., priority 2008, dated 2024).

Experiments:
[1] = relative to vasopressin; cited from earlier work
[2] = test system: adult patients with nocturia; test: Long term nocturnal voids, change from baseline up to week 52 (Parts II/III); format: in vivo, human; conditions: for mean decrease in nocturnal voids per night at one year: Part III
Source text: To ensure that the study remained fully blinded during the full extent of both Parts I and II, re-randomization of subjects assigned to placebo after 4 weeks of treatment was predetermined at the time of initial randomization. […] The total treatment duration for each subject depended on when that subject was randomized in Part I and was estimated to be a minimum of 4 weeks and a maximum of 6 months. Upon completion of Part II of the study, subjects were given the option to participate in an open-label study with expected total treatment duration (double-blind extension plus open-label study) of at least 12 months (i.e., Part III). In Part III, subjects were assigned to the same treatment as in Part II, initially in a blinded manner. Subjects were unblinded and the study became open label only when all subjects in Parts I and II remaining in the study had entered Part III. During Part III, 10 μg was identified as a sub-therapeutic dose based on efficacy data from Part I. As a consequence, patients in the 10 μg treatment group were re-randomized (beginning Q4 2008) to one of the other treatment groups (i.e., 25 μg, 50 μg, or 100 μg). The total treatment duration was at least 12 months. A total of 508 patients entered the open-labeled extension (i.e., Part III). […] A summary of the changes from baseline is presented for all eligible subjects. […] However, based on the data below, the additional decreases in the number of voids can be characterized as clinically significant. As used here, “clinically significant” means a minimum worthwhile effect.

[3] = test system: adult patients with nocturia; test: Duration of total sleep time, change from baseline to Day 28 (Part I); format: in vivo, human; conditions: final visit (Day 28)
Procedure: All treatments were administered orally once per night approximately 1 hour prior to bedtime; subjects were instructed to limit their fluid intake prior to drug self-administration. […] Randomization was to be stratified by age (<65, ≥65 years) and by the absence/presence of nocturnal polyuria, defined as a ratio of nighttime urine volume/24-hour urine volume 33%. To achieve the desired number of subjects within each stratum, enrollment of subjects in a particular stratum (age and/or presence/absence of nocturnal polyuria) could be halted. If this was necessary, all investigative sites were to be informed in writing at least 1 week in advance to stop screening in a population of subjects.
The secondary efficacy endpoints were: (1) durability of effect achieved in Part I; (2) change in initial period of undisturbed sleep, defined as the elapsed time in minutes from going to bed with the intention of sleeping to the time of awakening for the first nocturnal void; and (3) change in duration of total sleep time. Additional secondary endpoints were collected, e.g., change in nocturia-specific quality of life as assessed by scores on the International Consultation on Incontinence Modular Questionnaire—Noctuira and the Noctuira Quality of Life Questionnaire, change in quality of sleep as assessed by the global score of the Pittsburgh Sleep Quality Index, and change in overall quality of life as assessed by the short form—12v2. A description of the additional secondary efficacy endpoints and their accompanying data are not provided herein.
Total sleep time increased in all treatment groups in Part I; however, no pattern was observed by dose of desmopressin. Based on F-tests of effects, computed overall sleep duration and reported overall sleep duration were statistically significant predictors of change from baseline to Day 28 in total sleep time (p<0.0001).

## NC(=O)CC[C@@H]1NC(=O)[C@H](Cc2ccccc2)NC(=O)[C@H](Cc2ccc(O)cc2)NC(=O)CCSSC[C@@H](C(=O)N2CCC[C@H]2C(=O)N[C@H](CCCN=C(N)N)C(=O)NCC(N)=O)NC(=O)[C@H](CC(N)=O)NC1=O [desmopressin]
[1]
  antidiuretic-to-vasopressor ratio, greater than vasopressin: 3000 fold
[2]; 25 μg, all eligible subjects
  mean decrease in nocturnal voids per night at one year: 1.4 voids per night
[2]; 25 μg, all eligible female subjects, Day 28
  Change from baseline of nocturnal voids, Mean: −1.26
[2]; 25 μg, all eligible female subjects, Week 8
  Change from baseline of nocturnal voids, Mean: −1.51
[2]; 25 μg, all eligible female subjects, Week 12
  Change from baseline of nocturnal voids, Mean: −1.66
[2]; 25 μg, all eligible female subjects, Week 20
  Change from baseline of nocturnal voids, Mean: −1.68
[2]; 25 μg, all eligible female subjects, Week 28
  Change from baseline of nocturnal voids, Mean: −1.86
[2]; 25 μg, all eligible female subjects, Week 52
  Change from baseline of nocturnal voids, Mean: −1.75
[2]; 25 μg, all eligible male subjects, Day 28
  Change from baseline of nocturnal voids, Mean: −0.76
[2]; 25 μg, all eligible male subjects, Week 8
  Change from baseline of nocturnal voids, Mean: −0.84
[2]; 25 μg, all eligible male subjects, Week 12
  Change from baseline of nocturnal voids, Mean: −0.90
[2]; 25 μg, all eligible male subjects, Week 20
  Change from baseline of nocturnal voids, Mean: −1.25
[2]; 25 μg, all eligible male subjects, Week 28
  Change from baseline of nocturnal voids, Mean: −1.15
[2]; 25 μg, all eligible male subjects, Week 52
  Change from baseline of nocturnal voids, Mean: −1.13
[2]; 25 μg, all eligible subjects, Day 28
  Change from baseline of nocturnal voids, Mean: −0.98
[2]; 25 μg, all eligible subjects, Week 8
  Change from baseline of nocturnal voids, Mean: −1.16
[2]; 25 μg, all eligible subjects, Week 12
  Change from baseline of nocturnal voids, Mean: −1.29
[2]; 25 μg, all eligible subjects, Week 20
  Change from baseline of nocturnal voids, Mean: −1.48
[2]; 25 μg, all eligible subjects, Week 28
  Change from baseline of nocturnal voids, Mean: −1.44
[2]; 25 μg, all eligible subjects, Week 52
  Change from baseline of nocturnal voids, Mean: −1.41
[2]; 25 μg, all subjects with or without an assessment at week 52, Day 28
  Change from baseline of nocturnal voids, Mean: −0.96
[2]; 25 μg, all subjects with or without an assessment at week 52, Week 12
  Change from baseline of nocturnal voids, Mean: −1.42
[2]; 25 μg, all subjects with or without an assessment at week 52, Week 20
  Change from baseline of nocturnal voids, Mean: −1.61
[2]; 25 μg, all subjects with or without an assessment at week 52, Week 28
  Change from baseline of nocturnal voids, Mean: −1.39
[2]; 25 μg, all subjects with or without an assessment at week 52, Week 52
  Change from baseline of nocturnal voids, Mean: −1.41
[2]; 25 μg, all subjects with or without an assessment at week 52, time printed as "Week" (between Day 28 and Week 12)
  Change from baseline of nocturnal voids, Mean: −1.31
[2]; 50 μg, all eligible subjects
  mean decrease in nocturnal voids per night at one year: 1.77 voids per night
[2]; 50 μg, all eligible female subjects, Day 28
  Change from baseline of nocturnal voids, Mean: −1.30
[2]; 50 μg, all eligible female subjects, Week 8
  Change from baseline of nocturnal voids, Mean: −1.60
[2]; 50 μg, all eligible female subjects, Week 12
  Change from baseline of nocturnal voids, Mean: −1.62
[2]; 50 μg, all eligible female subjects, Week 20
  Change from baseline of nocturnal voids, Mean: −1.93
[2]; 50 μg, all eligible female subjects, Week 28
  Change from baseline of nocturnal voids, Mean: −1.89
[2]; 50 μg, all eligible female subjects, Week 52
  Change from baseline of nocturnal voids, Mean: −1.95
[2]; 50 μg, all eligible male subjects, Day 28
  Change from baseline of nocturnal voids, Mean: −1.16
[2]; 50 μg, all eligible male subjects, Week 8
  Change from baseline of nocturnal voids, Mean: −1.31
[2]; 50 μg, all eligible male subjects, Week 12
  Change from baseline of nocturnal voids, Mean: −1.30
[2]; 50 μg, all eligible male subjects, Week 20
  Change from baseline of nocturnal voids, Mean: −1.73
[2]; 50 μg, all eligible male subjects, Week 28
  Change from baseline of nocturnal voids, Mean: −1.28
[2]; 50 μg, all eligible male subjects, Week 52
  Change from baseline of nocturnal voids, Mean: −1.69
[2]; 50 μg, all eligible subjects, Day 28
  Change from baseline of nocturnal voids, Mean: −1.22
[2]; 50 μg, all eligible subjects, Week 8
  Change from baseline of nocturnal voids, Mean: −1.44
[2]; 50 μg, all eligible subjects, Week 12
  Change from baseline of nocturnal voids, Mean: −1.44
[2]; 50 μg, all eligible subjects, Week 20
  Change from baseline of nocturnal voids, Mean: −1.80
[2]; 50 μg, all eligible subjects, Week 28
  Change from baseline of nocturnal voids, Mean: −1.55
[2]; 50 μg, all eligible subjects, Week 52
  Change from baseline of nocturnal voids, Mean: −1.80
[2]; 50 μg, all subjects with or without an assessment at week 52, Week 12
  Change from baseline of nocturnal voids, Mean: −1.51
[2]; 50 μg, all subjects with or without an assessment at week 52, Week 20
  Change from baseline of nocturnal voids, Mean: −1.71
[2]; 50 μg, all subjects with or without an assessment at week 52, Week 28
  Change from baseline of nocturnal voids, Mean: −1.55
[2]; 50 μg, all subjects with or without an assessment at week 52, Week 52
  Change from baseline of nocturnal voids, Mean: −1.80
[2]; 50 μg, all subjects with or without an assessment at week 52, time printed as "Day" (after Day 0)
  Change from baseline of nocturnal voids, Mean: −1.10
[2]; 50 μg, all subjects with or without an assessment at week 52, time printed as "Week" (before Week 12)
  Change from baseline of nocturnal voids, Mean: −1.43
[2]; 100 μg, all eligible subjects
  mean decrease in nocturnal voids per night at one year: 2.11 voids per night
[2]; 100 μg, all eligible female subjects, Day 28
  Change from baseline of nocturnal voids, Mean: −1.50
[2]; 100 μg, all eligible female subjects, Week 8
  Change from baseline of nocturnal voids, Mean: −1.69
[2]; 100 μg, all eligible female subjects, Week 12
  Change from baseline of nocturnal voids, Mean: −1.79
[2]; 100 μg, all eligible female subjects, Week 20
  Change from baseline of nocturnal voids, Mean: −1.98
[2]; 100 μg, all eligible female subjects, Week 28
  Change from baseline of nocturnal voids, Mean: −1.75
[2]; 100 μg, all eligible female subjects, Week 52
  Change from baseline of nocturnal voids, Mean: −2.11
[2]; 100 μg, all eligible male subjects, Day 28
  Change from baseline of nocturnal voids, Mean: −1.31
[2]; 100 μg, all eligible male subjects, Week 8
  Change from baseline of nocturnal voids, Mean: −1.52
[2]; 100 μg, all eligible male subjects, Week 12
  Change from baseline of nocturnal voids, Mean: −1.89
[2]; 100 μg, all eligible male subjects, Week 20
  Change from baseline of nocturnal voids, Mean: −1.92
[2]; 100 μg, all eligible male subjects, Week 28
  Change from baseline of nocturnal voids, Mean: −1.92
[2]; 100 μg, all eligible male subjects, Week 52
  Change from baseline of nocturnal voids, Mean: −2.12
[2]; 100 μg, all eligible subjects, Day 28
  Change from baseline of nocturnal voids, Mean: −1.406
[2]; 100 μg, all eligible subjects, Week 8
  Change from baseline of nocturnal voids, Mean: −1.61
[2]; 100 μg, all eligible subjects, Week 12
  Change from baseline of nocturnal voids, Mean: −1.83
[2]; 100 μg, all eligible subjects, Week 20
  Change from baseline of nocturnal voids, Mean: −1.95
[2]; 100 μg, all eligible subjects, Week 28
  Change from baseline of nocturnal voids, Mean: −1.83
[2]; 100 μg, all eligible subjects, Week 52
  Change from baseline of nocturnal voids, Mean: −2.11
[2]; 100 μg, all subjects with or without an assessment at week 52, Day 28
  Change from baseline of nocturnal voids, Mean: −1.31
[2]; 100 μg, all subjects with or without an assessment at week 52, Week 8
  Change from baseline of nocturnal voids, Mean: −1.47
[2]; 100 μg, all subjects with or without an assessment at week 52, Week 12
  Change from baseline of nocturnal voids, Mean: −1.73
[2]; 100 μg, all subjects with or without an assessment at week 52, Week 20
  Change from baseline of nocturnal voids, Mean: −1.86
[2]; 100 μg, all subjects with or without an assessment at week 52, Week 52
  Change from baseline of nocturnal voids, Mean: −2.11
[2]; 100 μg, all subjects with or without an assessment at week 52, time printed as "Week" (between Week 20 and Week 52)
  Change from baseline of nocturnal voids, Mean: −1.80
[3]; 10 μg
  Total Sleep Time, Calculated Sleep Time, Change from Baseline, Mean: 9.7 min
  Total Sleep Time, Calculated Sleep Time, Change from Baseline, Median: 10.0 min
  Total Sleep Time, Reported Sleep Time, Change from Baseline, Mean: 7.8 min
  Total Sleep Time, Reported Sleep Time, Change from Baseline, Median: 10.0 min
[3]; 25 μg
  Total Sleep Time, Calculated Sleep Time, Change from Baseline, Mean: 19.7 min
  Total Sleep Time, Calculated Sleep Time, Change from Baseline, Median: 15.3 min
  Total Sleep Time, Reported Sleep Time, Change from Baseline, Mean: 15.9 min
  Total Sleep Time, Reported Sleep Time, Change from Baseline, Median: 10.0 min
[3]; 50 μg
  Total Sleep Time, Calculated Sleep Time, Change from Baseline, Mean: 24.2 min
  Total Sleep Time, Calculated Sleep Time, Change from Baseline, Median: 14.2 min
  Total Sleep Time, Reported Sleep Time, Change from Baseline, Mean: 24.9 min
  Total Sleep Time, Reported Sleep Time, Change from Baseline, Median: 20.0 min
[3]; 100 μg
  Total Sleep Time, Calculated Sleep Time, Change from Baseline, Mean: 9.7 min
  Total Sleep Time, Calculated Sleep Time, Change from Baseline, Median: 12.0 min
  Total Sleep Time, Reported Sleep Time, Change from Baseline, Mean: 19.0 min
  Total Sleep Time, Reported Sleep Time, Change from Baseline, Median: 20.0 min
